This is an account of results in patent US10987349B2, “Antitumor agent and bromodomain inhibitor” (FUJIFILM Corporation, priority 2016, dated 2021).

Structures are written as SMILES.

Usually IC50 stands for the concentration at which inhibition is half-maximal. A low value points to higher potency. As usually defined, the inhibition is the share of the control response that was lost under treatment. By GI50 is commonly meant the concentration that inhibits growth by half. A low value points to greater sensitivity of the cells.

One experiment concerns the target T1, BRD2 BD1 (Homo sapiens, UniProt P25440).
T1 construct: BRD2 BD1, BRD3 BD1 and BRD4 BD1 (Cisbio); purchased Cisbio
The experiment in a line: Binding assay, BRD2 BD1 to acetylated histone H4 Peptide-Biotin (EPIgeneous Binding Domain Kit A). Conditions: for inhibition at 0.3 µM: test compound at 300 nmol/L, read-out: Binding inhibition percentage BRD2 BD1. In a few lines:
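HTRF competition: bromodomain protein (added at 20 nmol/L) and biotinylated tetra-acetyl H4(1-25) peptide (added at 25 nmol/L) were incubated with compound, streptavidin-d2 and anti-GST Eu cryptate for 20 h at room temperature. Inhibition came from the 665/620 nm ratio relative to DMSO; IC50 by four-parameter fit; some compounds were tested only at 300 nmol/L final.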

For experiment [1], the system named is human lymphoma cell line Raji. As to the kind of experiment: Cell growth test (Cell Titer Glo) Raji. Conditions: 3 to 5 days. Format: cell-based. The text has this:
(§1) The human undifferentiated thymoma cell line Ty-82 (JCRB), the human acute myeloid leukemia cell lines MV4-11 (ATCC), MOLM-13 (ATCC) and RS4-11 (ATCC), the human lymphoma cell line Raji (JCRB), the human cervical epidermoid carcinoma cell line Hela (JCRB), the human lung adenocarcinoma cell line A549 (ATCC), the human colon cancer cell lines DLD1 (DS Pharma) and HCT116 (DS Pharma), and the human pancreatic cancer cell line MIAPACA-2 (ATCC) were used to carry out a cell growth test.
(§2) Ty-82, MV4-11, MOLM-13, RS4-11, Raji and DLD1 were each seeded in a well plate, in which Roswell Park Memorial Institute (RPMI)-1640 medium supplemented with penicillin/streptomycin and fetal bovine serum (FBS) with a final concentration of 10% was placed. Hela was seeded in Dulbecco's Modified Eagle's medium (DMEM) supplemented with penicillin/streptomycin and FBS with a final concentration of 10%. A549 and MIAPACA-2 were each seeded in a well plate, in which Minimum Essential Medium (MEM) supplemented with penicillin/streptomycin and FBS with a final concentration of 10% was placed. […]
(§3) Thereafter, a medium containing a test compound serially diluted with DMSO, or DMSO, was added to each well of the plate, in which the cells had been seeded, and the obtained mixture was then cultured under conditions of 37° C. and 5% CO2 for 3 to 5 days. Cell Titer Glo reaction solution (Promega) was added to the culture, and the amount of luminescence was then measured using Envision plate reader (PerkinElmer). Since the amount of luminescence is in proportion to the concentration of adenosine triphosphate (ATP) in cells, the amount of luminescence was used as an indicator of the number of living cells. The growth inhibition percentage of the test compound in each concentration was calculated according to the following equation. Growth inhibition percentage (%)=(amount of luminescence in test compound−added well)/(amount of luminescence in DMSO−added well)×100 […]

In experiment [2] the test system is human acute myeloid leukemia cell line MOLM-13. As to the kind of experiment: Cell growth test (Cell Titer Glo) MOLM-13. Type of experiment: cell-based. Conditions: 3 to 5 days.
Description: as §1
(§4) Ty-82, MV4-11, MOLM-13, RS4-11, Raji and DLD1 were each seeded in a well plate, in which Roswell Park Memorial Institute (RPMI)-1640 medium supplemented with penicillin/streptomycin and fetal bovine serum (FBS) with a final concentration of 10% was placed. Hela was seeded in Dulbecco's Modified Eagle's medium (DMEM) supplemented with penicillin/streptomycin and FBS with a final concentration of 10%. A549 and MIAPACA-2 were each seeded in a well plate, in which Minimum Essential Medium (MEM) supplemented with penicillin/streptomycin and FBS with a final concentration of 10% was placed. HCT116 was seeded in a well plate, in which McCoy's 5A medium supplemented with penicillin/streptomycin and FBS with a final concentration of 10% was placed.
(§5) Thereafter, a medium containing a test compound serially diluted with DMSO, or DMSO, was added to each well of the plate, in which the cells had been seeded, and the obtained mixture was then cultured under conditions of 37° C. and 5% CO2 for 3 to 5 days. Cell Titer Glo reaction solution (Promega) was added to the culture, and the amount of luminescence was then measured using Envision plate reader (PerkinElmer). Since the amount of luminescence is in proportion to the concentration of adenosine triphosphate (ATP) in cells, the amount of luminescence was used as an indicator of the number of living cells. The growth inhibition percentage of the test compound in each concentration was calculated according to the following equation. Growth inhibition percentage (%)=(amount of luminescence in test compound−added well)/(amount of luminescence in DMSO−added well)×100
(§6) The growth inhibition percentage of the test compound in each concentration was plotted by performing a non-linear regression analysis [(log (inhibitor) vs. response—Variable slope (four parameters)], using Graphpad prism 5, and a 50% growth inhibitory concentration [GI50 (nmol/L)] was then calculated.
For orientation: ATP-based viability assays read luminescence as a measure of living cells.

Experiment [3] concerns human colon cancer cell line DLD1. As to the kind of experiment: Cell growth test (Cell Titer Glo) DLD1. Format: cell-based. Conditions: DLD-1, 3 to 5 days.
Description: as §1, §2, §3

Experiment [4] concerns human acute myeloid leukemia cell line RS4-11. The experiment in a line: Cell growth test (Cell Titer Glo) RS4-11. Conditions: RS4-11, Acute myeloid leukemia, 3 to 5 days. Format: cell-based.
Description: as §1, §2, §3

Experiment [5] concerns human acute myeloid leukemia cell line MV4-11. The experiment in a line: Cell growth test (Cell Titer Glo) MV4-11. Type of experiment: cell-based. Conditions: 3 to 5 days.
Description: as §1, §4, §5, §6

A further experiment relates to c-Myc protein. The experiment in a line: Expression of c-Myc protein in Ty-82 cells, Western blotting. Conditions: 100 nmol/L, 24 hours. Type of experiment: cell-based, human. The method, then:
It has been known that the antitumor action of a bromodomain inhibitor is associated with a c-Myc protein. Please refer to, for example, Non-Patent Document 3: Delmore J E et al., Cell, Vol. 146, pp. 904 to 917, 2011. With reference to the method described in Non-Patent Document 3, the ability of the compound of the present example to inhibit the expression of a c-Myc protein in cancer cells was evaluated according to Western blotting.
The human undifferentiated thymoma cell line Ty-82 (JCRB) used in the evaluation was seeded in a 6-well plate, in which an RPMI-1640 medium supplemented with penicillin/streptomycin and FBS with a final concentration of 10% was placed. A medium containing a test compound serially diluted with dimethyl sulfoxide (DMSO), or DMSO, was added to each well of the 6-well plate in which the cells had been seeded, and the obtained mixture was then cultured under conditions of 37° C. and 5% CO2 for 24 hours. Thereafter, the cells were recovered, and were then washed with PBS. After that, Lysis Buffer (10-fold diluted Cell Lysis Buffer (10×) (CST Japan), to which Halt Protease and Phosphatase Inhibitor Cocktail (Thermofisher Scientific) were added) was added to the resulting cells. The above-described cell suspension was subjected to an ultrasonic treatment to disintegrate the cells, and was then centrifuged to recover a supernatant. Sample buffer was added thereto, and the obtained mixture was then heated at 95° C. for 5 minutes.
A sample prepared from the above-described supernatant was loaded at a protein mass of 10 μg/lane on XV PANTERA GEL 7.5%-15% (D.R.C), and was then subjected to electrophoresis. The electrophoresed protein was transcribed on a transcription membrane, and was then inoculated with Anti-Myc antibody (CST, Catalog No. 9402) and then with IRDye® 680LT Donkey anti-Rabbit IgG (H+L) (LI-COR). Using Odessey (LI-COR), the fluorescence intensity at an excitation wavelength of 700 nm was measured, and the expression level of the c-Myc protein was then quantified.
(In general: A western blot detects proteins with antibodies after separation by electrophoresis.)

T1 sequence (P25440 74-180 limits assumed): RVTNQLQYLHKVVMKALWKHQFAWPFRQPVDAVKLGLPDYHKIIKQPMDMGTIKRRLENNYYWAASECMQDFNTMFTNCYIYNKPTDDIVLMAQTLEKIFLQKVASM

Consider `CCn1c(=O)cc(C2CCN(C)CC2)c2cc(C(=O)N(C)c3ccc(C)cc3)ccc21` [Example 14, 1-Ethyl-N-methyl-N-(4-methylphenyl)-4-(1-methylpiperidin-4-yl)-2-oxo-1,2-dihydroquinoline-6-carboxamide], for which, on BRD2 BD1, the IC50 came to 9 nM. The inhibition at 0.3 µM on BRD2 BD1 was 93%. For the same compound, the GI50 stood at 60 nM in experiment [1]; 32 nM in experiment [2]; 361 nM in experiment [3]; 66 nM in experiment [4]; 16 nM in experiment [5]. Besides, the “expression level of c-Myc protein” value in the experiment with c-Myc protein is on record as “significantly reduced”.
`CCn1c(=O)cc(N2CCOCC2)c2cc(-n3c(-c4ccc(Cl)cc4)c[nH]c3=O)ccc21` [Example 245, 6-(5-(4-chlorophenyl)-2-oxo-2,3-dihydro-1H-imidazol-1-yl)-1-ethyl-4-(morpholin-4-yl)quinolin-2(1H)-one] yielded an IC50 at BRD2 BD1 of 61 nM. On BRD2 BD1, the inhibition at 0.3 µM amounted to 79%. For the same compound, the GI50 in experiment [1] worked out at 97 nM; in experiment [2] it was 37 nM; in experiment [3], 1340 nM; in experiment [4], 85 nM; in experiment [5] it was 15 nM. In the experiment with c-Myc protein, the “expression level of c-Myc protein” value is on record as “significantly reduced”.
In the case of `CCn1c(=O)cc(C2CCN(C)CC2)c2cc(C(=O)N(C)c3ccc4c(c3)CCC4)ccc21` [Example 17, N-(2,3-dihydro-1H-inden-5-yl)-1-ethyl-N-methyl-4-(1-methylpiperidin-4-yl)-2-oxo-1,2-dihydroquinoline-6-carboxamide], the IC50 at BRD2 BD1 came to 5 nM. Further, at BRD2 BD1, the inhibition at 0.3 µM was 93%. Further, the GI50 in experiment [1] is 23 nM; in experiment [2], 16 nM; in experiment [3], 165 nM; in experiment [4] it was 30 nM; in experiment [5], 8 nM. The “expression level of c-Myc protein” value with c-Myc protein is reported as “significantly reduced”.
